In ChEMBL document CHEMBL1135252, “Design and synthesis of antiangiogenic/heparin-binding arginine dendrimer mimicking the surface of endostatin” (Bioorg Med Chem Lett, 2002):

Columns and labels:
Gallus gallus [1] = species: Gallus gallus; assay: Antiangiogenic activity in chicken embryo chorioallantoic membrane assay, at 100 ug/CAM was determined; assay type: functional, tissue-based
Rattus norvegicus = species: Rattus norvegicus; assay: Salt concentration required for release from the heparin-agarose column was evaluated to determine the heparin- binding activity to inhibit the growth of rat lung endothelial(RLE) cells
Gallus gallus [2] = species: Gallus gallus; assay: Antiangiogenic activity in chicken embryo chorioallantoic membrane assay, at 10 ug/CAM was determined; assay type: functional, tissue-based

NaCl concentration (Rattus norvegicus): 1.2 M
Structure (SMILES): N=C(N)NCCCC(N)C(=O)NC(CCCNC(=N)N)C(=O)NCCCCC(NC(=O)C(CCCNC(=N)N)NC(=O)C(N)CCCNC(=N)N)C(=O)NCCCCC(NC(=O)C(CCCCNC(=O)C(CCCNC(=N)N)NC(=O)C(N)CCCNC(=N)N)NC(=O)C(CCCNC(=N)N)NC(=O)C(N)CCCNC(=N)N)C(=O)NCCCC(NC(=O)NCC(=O)O)NC(=O)C(CCCCNC(=O)C(CCCCNC(=O)C(CCCNC(=N)N)NC(=O)C(N)CCCNC(=N)N)NC(=O)C(CCCNC(=N)N)NC(=O)C(N)CCCNC(=N)N)NC(=O)C(CCCCNC(=O)C(CCCNC(=N)N)NC(=O)C(N)CCCNC(=N)N)NC(=O)C(CCCNC(=N)N)NC(=O)C(N)CCCNC(=N)N (stereo not drawn)
inhibition (Gallus gallus [1]): 70%
inhibition (Gallus gallus [2]): 45.4%
